Assays:
Chlorella sorokiniana [1] = assay: Biostimulant static culture batch study: chlorophyll content; assay type: cell-based, Chlorella sorokiniana (UTEX 2805); set-up: increase in chlorophyll over control / decrease in chlorophyll content versus control: concentration or dose not given beside the values; conditions: for increase in chlorophyll over control: day 10; for decrease in chlorophyll content versus control: day 5
Method: (§1) The pH value of culture medium was adjusted to 7.0±0.2 before inoculation and the alga was maintained in a temperature controlled growth chamber at 25±1° C. and 100±10 μmoles/m^2/s light intensity provided by cool white fluorescent (6500K) T-8 bulbs.
(§2) • Selection of the biochemical stimulants: Ten biochemical stimulants were selected, including indole-acetic acid, naphthalene-acetic acid, and phenyl-acetic acid The structures are shown in FIGS. 1 and 2. • Biochemical stimulants: Naphthalene acetic acid (NAA), indole-butryic acid […], gibberellic acid, and kelp extract were obtained from Super-Grow Plant Care, Montreal, Canada; Zeatin, and thidiazuron were obtained from bioWORLD, GeneLinx International, Inc, Ohio, USA; phenyl-acetic acid was supplied by Sigma-Aldrich, St. Louis, Mo., USA.
(§3) The experiment devised for the testing of biostimulants was a static culture batch study performed in triplicates for all treatments. Samples were collected and analyzed on day 0, 5 and 10. The growth medium was comprised of 90 ml of BG11 with appropriate concentrations of various biostimulants. Biochemical stimulants were filter sterilized through 0.22 μm Whatman syringe filter to avoid bacterial contamination. Each flask received 10 ml inoculum of exponentially growing Chlorella sorokiniana. After inoculation, flasks were incubated in the environmental growth chamber for 10 days in a temperature controlled growth chamber at 25±1° C. and 100±10 μmoles/m^21s light intensity provided by cool white fluorescent (6500K) T-8 bulbs.
(§4) • Analysis: Optical density was measured at 750 nm using a UV/Visible Spectrophotometer (Varian Cary 50, Varian Inc, Palo Alto, Calif., USA). Chlorophyll content was estimated following the method of Porra et al., ((1989) Biochem. Biophys. Acta 975: 384-394, incorporated herein in its entirety). The carbohydrate and protein content were estimated using the well-known methods of Dubois and Lowry respectively. Biomass was determined by filtering 25 mL of culture using pre-weighed Whatman GF/C glass fiber filters (1.2 μm). The material was washed with deionized water, dried at 60° C. for 12 h, and weighed. Photosynthetic efficiency and kinetics were determined by chlorophyll a fluorescence analysis using a Pulse Amplitude Modulation Fluorometer (Mini-PAM Chlorophyll a Fluorometer, Heinz Walz GmbH, Effeltrich, Germany).

Chlorella sorokiniana [2] = assay: Biostimulant static culture batch study: biomass productivity; assay type: cell-based, Chlorella sorokiniana (UTEX 2805); conditions: for effect on biomass / algal growth versus control, in words: day 5 and 10; for effect on biomass / algal growth versus control, in words / growth (biomass) increase over control: dosage of Table 1; for biomass (cell concentration / biomass productivity): 0.16 g/L with no biostimulants; for increase in biomass over control: dosage of Table 1 (NAA 5 ppm, PAA 30 ppm, IBA 10 ppm); for growth (biomass) increase over control: day not given
Method: as §1, §2, §3, §4

Chlorella sorokiniana [3] = assay: Biostimulant static culture batch study: total carbohydrate content; assay type: cell-based, Chlorella sorokiniana (UTEX 2805); conditions: for effect on carbohydrate synthesis versus control, in words: day 5; for increase in carbohydrate over control: day 10
Method: as §1, §2, §3, §4

Scenedesmus obliquus = conditions: 0.5% (v/v); cited from earlier work
[4] = test system: soy callus and radish cotyledon; conditions: cited from earlier work
[5] = test system: callus tissue culture from tobacco; conditions: cited from earlier work
Dunaliella tertiolecta = conditions: 136 mg L^−1; cited from earlier work

For `C=C1C[C@]23C[C@@]1(O)CC[C@H]2[C@@]12C=C[C@H](O)[C@@](C)(C(=O)O1)[C@H]2[C@@H]3C(=O)O` [GAA, gibberellic acid], the “effect on chlorophyll synthesis, in words” value (Chlorella sorokiniana [1]) was “inhibiting chlorophyll synthesis throughout the growth period”, the “increase in chlorophyll over control” value (Chlorella sorokiniana [1]) was 30% and the “effect on biomass / algal growth versus control, in words” value (Chlorella sorokiniana [2]) was “barely surpassed the control on day 5”. The “biomass (cell concentration / biomass productivity)” value (Chlorella sorokiniana [2]; day 10) was roughly 0.28 g/L, the “increase in biomass over control” value (Chlorella sorokiniana [2]; day 10, listed as GA) was “approximately 30%” and the “increase in biomass over control” value (Chlorella sorokiniana [2]; day 10, listed as GA3) was 81%.
With `O=C(O)CCCc1c[nH]c2ccccc12` [IBA, indole-butryic acid] the “effect on chlorophyll synthesis, in words” value (Chlorella sorokiniana [1]) was “marginal increase by day 5”, the “increase in chlorophyll over control” value (Chlorella sorokiniana [1]) was 93% and the “increase in biomass over control” value (Chlorella sorokiniana [2]; day 5) was 74%. For the same compound, the “effect on biomass / algal growth versus control, in words” value (Chlorella sorokiniana [2]) was “stimulated biomass growth during the entire 0-10 day growth period”, the “biomass (cell concentration / biomass productivity)” value (Chlorella sorokiniana [2]; day 10) was 0.28 g/L and the “increase in biomass over control” value (Chlorella sorokiniana [2]; day 10) was 76%. For the same compound, the “effect on carbohydrate synthesis versus control, in words” value (Chlorella sorokiniana [3]) was “reduced carbohydrate contents on day 5”.
In the case of `CO` [MeOH, methanol], the “decrease in chlorophyll content versus control” value (“decrease” below) (Chlorella sorokiniana [1]) is given as 45% and the “increase in the growth rate” value (Scenedesmus obliquus) is given as greater than 300%.
For `O=C(O)Cc1ccccc1` [PAA, Phenyl acetic acid], the “decrease” value (Chlorella sorokiniana [1]) was 37%, the “increase in biomass over control” value (Chlorella sorokiniana [2]; day 5) was 95% and the “increase in biomass over control” value (Chlorella sorokiniana [2]; day 10) was 42%. For the same compound, the “effect on carbohydrate synthesis versus control, in words” value (Chlorella sorokiniana [3]) was “reduced carbohydrate contents on day 5” and the “increase in carbohydrate over control” value (Chlorella sorokiniana [3]) was 27%.
In the case of `O=C(Nc1ccccc1)Nc1cnns1` [TDZ, thidiazuron], the “increase in chlorophyll over control” value (Chlorella sorokiniana [1]) was 30%, the “increase in biomass over control” value (Chlorella sorokiniana [2]; day 10) was “approximately 30%” and the “growth (biomass) increase over control” value (Chlorella sorokiniana [2]) was 33%. For the same compound, the “optimal dose that generated maximum growth in soy callus and expansion of radish cotyledon” value [4] was 1 µM.
In the case of `C/C(=C\CNc1ncnc2[nH]cnc12)CO` [Zeatin], the “activity relative to its cis isomer” value [5] is listed as “at least 50 times”, the “optimal dosage for maximum growth of callus tissue culture” value [5] is listed as 10^−2 μM and the “growth (biomass) increase over control” value (Chlorella sorokiniana [2]) is listed as 27%. For the same compound, the “effect on carbohydrate synthesis versus control, in words” value (Chlorella sorokiniana [3]) was “reduced carbohydrates synthesis on day 5” and the “increase in carbohydrate over control” value (Chlorella sorokiniana [3]) was 31%.
In the case of `CCNc1nc(Cl)nc(NC(C)C)n1` [atrazine], the “increase in lipid content relative to the control” value (Dunaliella tertiolecta) is given as 101% and the “reduction of protein content relative to the control” value (Dunaliella tertiolecta) is given as 57%.
With `[Cl][Fe]([Cl])[Cl]` [ferric chloride] the “decrease” value (Chlorella sorokiniana [1]) was 65% and the “effect on biomass / algal growth versus control, in words” value (Chlorella sorokiniana [2]) was “only marginal increases and decreases on day 10 and 5”.
